Patent US9995734B2, “Human T cell line assay for evaluating the immunologic identity of glatiramer acetate preparations” (Mylan Inc., priority 2013, dated 2018)

System: Donor 1 COP T-Cell Lines
Assay: Multiplex bead cytokine assay (FlowCytoMix), Donor 1 COP T-cell lines
Assay type: cell-based, human
Procedure: Culture medium was removed from cultures prepared as for proliferation assay and utilized to measure cytokine production. In most cases culture medium was collected 18-24 hours after mixing T-cells, APC, and stimulating antigen. Cytokine production was measured by ELISA or bead assay. For measuring cytokine production, 100-150 μL culture medium (100 μL if culture was to be continued, otherwise 150 μL) was removed from each well. In some cases, the culture was continued 48 hours, for a total of 72 hours of culture, and the proliferative response measured.
The concentration of multiple cytokines was measured simultaneously using FlowCytoMix™ kits (eBioscience, San Diego Calif.). These are fluorescent bead based assays consisting of beads conjugated to anti cytokine antibodies. Beads specific for each cytokine are distinguished by size and fluorescence at 670 run. Cytokine bound to each bead is detected using a phycoerythrin conjugated antibody so that the fluorescence at 585 nm reflects the concentration of cytokine in the sample. Two kits were utilized which measured different cytokine panels. The TH1/TH2 kit measures IFN-γ, IL-1β, IL-2, IL-4, IL-5, IL-6, IL-8, IL-10, IL-12p70, TNF-α (TNF) and TNF-β (LT). The TH1/TH2/TH9/TH17/TH22 kit measures […], IL-1β, IL-2, IL-4, IL-5, IL-6, IL-9, IL-10, IL-12p70, IL-13, IL-17, IL-22, and TNF-α (TNF). Both kits were used following the manufacturer's instructions.
IL-12p70, IFN-γ, IL-2, IL-10, IL-8, IL-6, IL-5, IL-4, IL-1β, TNF-α (TNF), and TNF-β (LT) secretion were measured in response to stimulation with 1, 3, or 10 μg/mL GMA, or 1, 3, or 10 μg/mL COP, as well as a no-antigen control and an MBP control, in the presence of autologous EBV-transformed B-LCL.

[1] = 222-1C5, 1 μg/mL, 24 hours after Day 56 restimulation
[2] = 222-1C5, 3 μg/mL, 24 hours after Day 56 restimulation
[3] = 222-1C5, 10 μg/mL, 24 hours after Day 56 restimulation
[4] = 222-1C5, 10 μg/mL, Day 34 supernatants
[5] = 222-1H12, 10 μg/mL, Day 34 supernatants
[6] = 222-2B8, 1 μg/mL, 24 hours after Day 56 restimulation
[7] = 222-2B8, 3 μg/mL, 24 hours after Day 56 restimulation
[8] = 222-2B8, 10 μg/mL, 24 hours after Day 56 restimulation
[9] = 222-2D2, 10 μg/mL, Day 34 supernatants
[10] = 222-2D8, 10 μg/mL, Day 34 supernatants
[11] = 222-2E1, 1 μg/mL, 24 hours after Day 56 restimulation
[12] = 222-2E1, 3 μg/mL, 24 hours after Day 56 restimulation
[13] = 222-2E1, 10 μg/mL, 24 hours after Day 56 restimulation
[14] = 222-B11 (so in the source), 1 μg/mL, 24 hours after Day 56 restimulation
[15] = 222-B11 (so in the source), 3 μg/mL, 24 hours after Day 56 restimulation
[16] = 222-B11 (so in the source), 10 μg/mL, 24 hours after Day 56 restimulation

## glatiramer acetate [GMA]
[1]
  IFN-γ: 181 pg/mL
  IL-2: 30 pg/mL
  IL-5: 0 pg/mL
  IL-10: 11 pg/mL
  IL-13: 154 pg/mL
  IL-22: 39 pg/mL
  TNF-α: 3 pg/mL
[2]
  IFN-γ: 325 pg/mL
  IL-2: 83 pg/mL
  IL-5: 0 pg/mL
  IL-10: 38 pg/mL
  IL-13: 316 pg/mL
  IL-22: 101 pg/mL
  TNF-α: 72 pg/mL
[3]
  IFN-γ: 664 pg/mL
  IL-2: 0 pg/mL
  IL-5: 0 pg/mL
  IL-10: 55 pg/mL
  IL-13: 942 pg/mL
  IL-22: 0 pg/mL
  TNF-α: 80 pg/mL
[4]
  IFN-γ: 511.42 pg/mL
  IL-1β: 94.12 pg/mL
  IL-2: 185.35 pg/mL
  IL-5: 67.83 pg/mL
  IL-8: <= 0 pg/mL
  IL-10: 77.88 pg/mL
  TNF-α: 31.35 pg/mL
  TNF-β: 29.94 pg/mL
[5]
  IFN-γ: 3138 pg/mL
  IL-1β: 20 pg/mL
  IL-2: 152 pg/mL
  IL-4: 99 pg/mL
  IL-5: 336 pg/mL
  IL-10: 234 pg/mL
  TNF-α: 83 pg/mL
  TNF-β: 102 pg/mL
[6]
  IFN-γ: 1.88 pg/mL
  IL-2: 0 pg/mL
  IL-5: 0 pg/mL
  IL-10: 0 pg/mL
  IL-13: 183.09 pg/mL
  IL-22: 0 pg/mL
  TNF-α: 0 pg/mL
[7]
  IFN-γ: 44.52 pg/mL
  IL-2: 1.6 pg/mL
  IL-5: 78.29 pg/mL
  IL-10: 1.8 pg/mL
  IL-13: 1214.45 pg/mL
  IL-22: 63.98 pg/mL
  TNF-α: 0 pg/mL
[8]
  IFN-γ: 140.65 pg/mL
  IL-2: 0 pg/mL
  IL-5: 400.46 pg/mL
  IL-10: 41 pg/mL
  IL-13: 3162.51 pg/mL
  IL-22: 124.15 pg/mL
  TNF-α: 96.57 pg/mL
[9]
  IFN-γ: 53.75 pg/mL
  IL-1β: 103.85 pg/mL
  IL-2: 55.42 pg/mL
  IL-5: 29.13 pg/mL
  IL-8: <= 0 pg/mL
  IL-10: 26.12 pg/mL
  TNF-α: 5.35 pg/mL
  TNF-β: 5.79 pg/mL
222-2D8, 222-1H12, 222-1C5, 222-2D2, Day 34 supernatants
  IL-4, IL-6, or IL-12 detected: Little or no
[10]
  IFN-γ: 2616 pg/mL
  IL-1β: 2420 pg/mL
  IL-2: 52 pg/mL
  IL-4: 41 pg/mL
  IL-5: 1501 pg/mL
  IL-10: 107 pg/mL
  TNF-α: 405 pg/mL
  TNF-β: 243 pg/mL
[11]
  IFN-γ: 49.11 pg/mL
  IL-2: 0 pg/mL
  IL-5: 0 pg/mL
  IL-10: 0 pg/mL
  IL-13: 146.02 pg/mL
  IL-22: 21.77 pg/mL
  TNF-α: 9.36 pg/mL
[12]
  IFN-γ: 162.68 pg/mL
  IL-2: 0 pg/mL
  IL-5: 0 pg/mL
  IL-10: 7.1 pg/mL
  IL-13: 1050.77 pg/mL
  IL-22: 25.71 pg/mL
  TNF-α: 65.44 pg/mL
[13]
  IFN-γ: 349.76 pg/mL
  IL-2: 0 pg/mL
  IL-5: 128.4 pg/mL
  IL-10: 16.33 pg/mL
  IL-13: 2036.36 pg/mL
  IL-22: 0 pg/mL
  TNF-α: 170.24 pg/mL
[14]
  IFN-γ: 0 pg/mL
  IL-2: 0 pg/mL
  IL-5: 0 pg/mL
  IL-10: 1.3 pg/mL
  IL-13: 29.41 pg/mL
  IL-22: 42.51 pg/mL
  TNF-α: 0 pg/mL
[15]
  IFN-γ: 0 pg/mL
  IL-2: 0 pg/mL
  IL-5: 0 pg/mL
  IL-10: 0 pg/mL
  IL-13: 133.55 pg/mL
  IL-22: 51.87 pg/mL
  TNF-α: 0 pg/mL
[16]
  IFN-γ: 37.79 pg/mL
  IL-2: 0 pg/mL
  IL-5: 94.56 pg/mL
  IL-10: 0.4 pg/mL
  IL-13: 1563.22 pg/mL
  IL-22: 0 pg/mL
  TNF-α: 0 pg/mL
Line 105 (so in the source), Table 14 = 222-1C5, after appropriate dilution of supernatants
  IFN-γ production: comparable amounts
